The numbers were not newly measured in paper PMC7163368 (British Journal of Clinical Pharmacology, 2020), which cites them from elsewhere.

The structures appear in SMILES notation.

For the series the following is noted: cited from earlier work.

With `CC#CCn1c(N2CCC[C@@H](N)C2)nc2c1c(=O)n(Cc1nc(C)c3ccccc3n1)c(=O)n2C` [linagliptin], the “Terminal half‐life” value (currently available oral gliptines) was 105 h.

Regarding `N#C[C@@H]1C[C@@H]2C[C@@H]2N1C(=O)[C@@H](N)C12CC3CC(CC(O)(C3)C1)C2` [saxagliptin], the Oral bioavailability was 67%. As for `N[C@@H](CC(=O)N1CCn2c(nnc2C(F)(F)F)C1)Cc1cc(F)c(F)cc1F` [sitagliptin], the “Plasma levels higher in female subjects” value (female vs male subjects) is “approximately 25%”. For the compound `N#C[C@@H]1CCCN1C(=O)CNC12CC3CC(CC(O)(C3)C1)C2` [vildagliptin], the Oral bioavailability is on record as 85%.
